Laboratory results: EP2433624B1, “Use of buparvaquone for controlling mites parasitising honeybees” (Bimeda International Pharmaceuticals Limited, priority 2010, dated 2012)
Where “and” joins values, the source holds several entries; their conditions need not be identical. Equal entries are not always repeated.

Tests used:
Varroa mites [1] = test: Efficacy of BPQ B against Varroa mites on honeybees fed treated sucrose solution; format: in vivo; settings: summary statement
Experimental: Example 6 - Toxicity of BPQ B to Varroa mites on honeybees when fed treated sucrose solution
To estimate the percentage efficacy of BPQ at different concentrations in sucrose solution
A total of 20 newly emerged Varroa infested bees were placed in hoarding cages. The cages were prepared as described in Section 1.0, except that the air vents were reduced in size using parafilm to prevent the Varroa mites escaping during the test period. The mean(±se) number of mites per 20 bees was estimated prior to commencement of the experiment and an additional 5 mites per cage were added. (mean±se = 10.6±0.33). This was carried out by collecting adult female mite from drone pupae, placing them in an eppendorf tube and then releasing them into the cages.
The treatment solution was made by dissolving BPQ B in solvent, followed by two aqueous serial dilutions producing a concentration of 500µg/mL and 5 µg/mL. From the latter, further serial dilutions were carried with sucrose solution producing the following concentrations: • 0.5µg/mL. (C1-C3) • 0.05µg/mL. (D1-D3) • 0.005µg/mL. (E1-E3) • 0.0005µg/mL. (F1-F3) • 0.00005µg/mL (G1-G3)
Three replicates were established at each concentration plus a control group which were only fed sugar syrup. All cages were placed in the incubator at 32°C and monitored on a daily basis for the number of mites and number of bees knocked down. At the end of five day treatment period, the percentage efficacy of the treatment was estimated by treating bees in all cages with Apistan (Trade Mark of Vita (Europe) Ltd. Apistan contains fluvalinate which is a synthetic pyrethroid. % efficacy = mites knocked from treatment/total mites (treatment+Apistan)*100 [formula]

Varroa mites [2] = test: Efficacy of BPQ B against Varroa mites on honeybees sprayed with an aqueous solution; format: in vivo; settings: summary statement
Experimental: (§1) Example 7 - Toxicity of BPQ B to Varroa mites on honeybees when sprayed with an aqueous solution of the active ingredient
To estimate the percentage efficacy of BPQ B at different concentrations when sprayed as an aqueous solution onto adult bees
(§2) A total of 20 newly emerged Varroa infested bees were placed in hoarding cages. The cages were prepared as described in Section 1.0, except that the air vents were reduced in size using parafilm to prevent the Varroa mites escaping during the test period. The mean(±se) number of mites per 20 bees was estimated prior to commencement and an additional 10 mites per cage were added. Mites were collected and introduced as described above. The treatment solution was made by dissolving BPQ B in solvent, followed by two aqueous serial dilutions producing a concentration of 500µg/mL and 5µg/mL. From the latter, further serial dilutions were carried in water producing the following concentrations: • 0.5µg/mL. (C1-C3) • 0.05µg/mL. (D1-D3) • 0.005µg/mL. (E1-E3) • 0.0005µg/mL. (F1-F3) • 0.00005µg/mL (G1-G3)
(§3) Three replicates were established at each concentration plus a control group which were sprayed with water only. All test groups were fed 10mL of 1:1 sucrose:water solution and placed in the incubator at 32°C and monitored on a daily basis for the number of mites and number of bees knocked down. At the end of five day treatment period, the percentage efficacy of the treatment was estimated by treating bees in all cages with Apistan. % efficacy = mites knocked from treatment/total mites (treatment+Apistan)*100 [formula]

[3] = test system: adult honeybees (Apis mellifera); test: Toxicity of BPQ A to honeybees when fed in a sugar syrup solution (hoarding cages, 16 days); format: in vivo; settings: summary statement over all the studies
Experimental: We have assessed the toxicity of BPQ to adult honeybees (Apis mellifera) using the 50 mg/mL liquid solution, BPQ A, under laboratory conditions
Example 1 - Toxicity of BPQ A to honeybees when fed in a sugar syrup solution (50mL liquid at a concentration of 50mg BPQ/mL)
Hoarding cages consisted of plastic tumblers (600mL) with an opening diameter of 84mm. The tumblers were paired with standard plastic petri-dishes and glass scintillation vials. To allow sufficient ventilation, 33 holes, approximately 3mm in diameter were made in the sides of each tumbler, in addition to two 30mm x 30mm holes fitted with nylon mesh. A circular hole was cut out of the bottom of the cup, which produced an opening large enough to allow a lidded scintillation vial to pass through the hole. Two holes were drilled into the lids of the scintillation vials with a 1mm bit and these vials were filled a 1:1 sugar solution, together with different concentrations of the solvent and product. […]
Three replicates were analysed at each concentration of BPQ A and solvent as outlined below, together with a control group which were only fed sugar and water throughout the experimental period.
Bees were maintained for 16 days at 32°C. Bees were fed additional food as required throughout the experimental period and the general behaviour and survival of the test bees were recorded on a daily basis. […]

honeybee larvae = test: Toxicity of BPQ B to honeybee larvae when fed treated syrup; format: in vivo, Apis mellifera; settings: colony fed treated syrup
From the text: To measure the effect of treatment on developing larvae when fed syrup treated with BPQ powder, BPQ B, dissolved in the solvent (N-methyl pyrollidone) and diluted in an aqueous solution.
Apidae boxes were used to raise young queens and when virgin queens started to lay an area 6cm x 3cm were marked and missing cells were noted. The miniature colony was fed treated syrup, which was made by dissolving BPQ B powder in solvent, followed by serial dilutions using a sucrose solution (2 parts sugar: 1 part water). The concentrations administered are given below. Two replicates were carried out for the product, while 1 colony (apidae) was used for each of the solvent concentrations.

honeybees = test: Survival of bees sprayed with aqueous solutions of BPQ; format: in vivo, Apis mellifera; settings: 20 bees per cage
Experimental: as §1, §2, §3

[4] = 0.00005µg/mL (g1-g3) aqueous solution sprayed
[5] = 0.0005µg/mL (f1-f3) aqueous solution sprayed
[6] = 0.005µg/mL (e1-e3) aqueous solution sprayed
[7] = 0.05µg/mL (d1-d3) aqueous solution sprayed
[8] = 0.5µg/mL (c1-c3) aqueous solution sprayed

Structure (SMILES): CC(C)(C)[C@H]1CC[C@H](CC2=C(O)C(=O)c3ccccc3C2=O)CC1 [BPQ, buparvaquone]
- effective, application via bee feed route (Varroa mites [1]): 82%
- effective, topical application (Varroa mites [2]): ~40%
- harm to adult bees and larvae [3]: harmless
- development of developing larvae (honeybee larvae): no negative effects
- Bees remaining (honeybees; [4]): 18 and 17 and 20
- Survival rate on bees, Day 1 (honeybees; [4]): 20
- Survival rate on bees, Day 2 (honeybees; [4]): 19 and 20
- Survival rate on bees, Day 3 (honeybees; [4]): 19 and 17 and 20
- Survival rate on bees, Day 4 (honeybees; [4]): 19 and 17 and 20
- Survival rate on bees, Day 5 (honeybees; [4]): 19 and 17 and 20
- Survival rate on bees, Day 6 (honeybees; [4]): 18 and 17 and 20
- Bees remaining (honeybees; [5]): 20 and 19 and 18
- Survival rate on bees, Day 1 (honeybees; [5]): 20
- Survival rate on bees, Day 2 (honeybees; [5]): 20 and 19 and 18
- Survival rate on bees, Day 3 (honeybees; [5]): 20 and 19 and 18
- Survival rate on bees, Day 4 (honeybees; [5]): 20 and 19 and 18
- Survival rate on bees, Day 5 (honeybees; [5]): 20 and 19 and 18
- Survival rate on bees, Day 6 (honeybees; [5]): 20 and 19 and 18
- Bees remaining (honeybees; [6]): 19 and 20
- Survival rate on bees, Day 1 (honeybees; [6]): 20
- Survival rate on bees, Day 2 (honeybees; [6]): 20
- Survival rate on bees, Day 3 (honeybees; [6]): 19 and 20
- Survival rate on bees, Day 4 (honeybees; [6]): 19 and 20
- Survival rate on bees, Day 5 (honeybees; [6]): 19 and 20
- Survival rate on bees, Day 6 (honeybees; [6]): 19 and 20
- Bees remaining (honeybees; [7]): 20 and 19
- Survival rate on bees, Day 1 (honeybees; [7]): 20
- Survival rate on bees, Day 2 (honeybees; [7]): 20 and 19
- Survival rate on bees, Day 3 (honeybees; [7]): 20 and 19
- Survival rate on bees, Day 4 (honeybees; [7]): 20 and 19
- Survival rate on bees, Day 5 (honeybees; [7]): 20 and 19
- Survival rate on bees, Day 6 (honeybees; [7]): 20 and 19
- Bees remaining (honeybees; [8]): 19 and 20
- Survival rate on bees, Day 1 (honeybees; [8]): 20
- Survival rate on bees, Day 2 (honeybees; [8]): 20 and 19
- Survival rate on bees, Day 3 (honeybees; [8]): 20 and 19
- Survival rate on bees, Day 4 (honeybees; [8]): 19 and 20
- Survival rate on bees, Day 5 (honeybees; [8]): 19 and 20
- Survival rate on bees, Day 6 (honeybees; [8]): 19 and 20
